From ChEMBL document CHEMBL5370565, “Inhibition of Cysteine Proteases via Thiol-Michael Addition Explains the Anti-SARS-CoV-2 and Bioactive Properties of Arteannuin B” (J Nat Prod, 2023)
Active and inactive are the calls of the source. The calls are words filed in the database; no cut-off is given here.

Tests used:
Glioblastoma cell line = experiment: Cytotoxicity against glioblastoma (unknown origin) cells assessed as reduction in cell viability at 35 uM incubated for 24 hrs by eFluor 780 fixable viability dye based flow cytometric analysis; assay type: functional
[1] = tested on: Severe acute respiratory syndrome coronavirus 2; experiment: Inhibition of C-terminal 6his-tagged/N-terminal strepII-tagged SARS-CoV-2 NSP5 expressed in Escherichia coli BL21 (DE3) cells using (4-Fluoro-F)LQS as substrate assessed as (4-fluoro-F)L production at 48 uM preincubated with compound for 60 mins followed by substrate addition and measured after 300 mins by LC-MS analysis relative to control; conditions: time 360.0 min
Caspase-8 (Homo sapiens) = Caspase-8 (Homo sapiens) (UniProt Q14790); experiment: Inhibition of C-terminal 6his tagged human Caspase 8 activity expressed in Escherichia coli BL21 (DE3) cells at 50 uM preincubated for 30 mins by LC-MS analysis
Caspase-8 (Homo sapiens), sequence (Q14790 217-374 limits assumed): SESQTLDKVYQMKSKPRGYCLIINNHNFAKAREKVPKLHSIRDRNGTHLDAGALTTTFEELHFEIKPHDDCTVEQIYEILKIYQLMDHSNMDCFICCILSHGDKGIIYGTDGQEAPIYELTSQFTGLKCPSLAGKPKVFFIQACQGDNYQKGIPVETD
Caspase-8 (Homo sapiens), sequence (Q14790 385-479 limits assumed): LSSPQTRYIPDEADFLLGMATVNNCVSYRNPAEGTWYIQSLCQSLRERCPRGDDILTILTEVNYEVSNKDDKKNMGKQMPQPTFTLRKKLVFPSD

SARS-CoV-2 = experiment: Antiviral activity against SARS-CoV-2 GX_P2V infected in African green monkey Vero E6 cells assessed as reduction in viral yield pretreated with cells for 2 hrs followed by viral infection and measured after 72 hrs by qRT-PCR analysis; assay type: functional, organism-based; conditions: Severe acute respiratory syndrome coronavirus 2, GX_P2V, Vero C1008

Row | Structure (SMILES) | Activity (Glioblastoma cell line) | inhibition [1] [%] | inhibition (Caspase-8 (Homo sapiens)) | EC50 (SARS-CoV-2) [µM]
1 | C[C@@H]1CC[C@H]2[C@H](C)C(=O)O[C@]23[C@H]1CC[C@@]1(C)O[C@@H]31 | inactive | – | – | –
2 | C=C1C(=O)O[C@@]23C1CC[C@@H](C)[C@@H]2CC[C@@]1(C)O[C@@H]31 (stereo not given in full) | Active | 45 | Active | 8.84
